The test system of test [1] is HBV. In words: Anti-HBV activity in HepG2 cells. The test is classed as cell-based. Particulars: for Anti-HBV potency compared with DAPD prodrug 5: comparison in words.
For a further test, the system named is HIV. As to conditions: in words; cited from earlier work.
Test [2] deals with HBV. As to conditions: in words; cited from earlier work.

In the case of “(2S)-Ethyl 2-(((((2R,4R)-4-(2-amino-6-palmitamido-9H-purin-9-yl)-1,3-dioxolan-2-yl)methoxy)(phenoxy)phosphoryl)amino)propanoate [Compound 10h]”, the “Anti-HBV potency compared with DAPD prodrug 5” value in the test with HBV [1] is “in the same range as DAPD prodrug 5”. Same read-out and setting: then “(2S)-Ethyl 2-(((((2R,4R)-4-(2-amino-6-tetradecanamido-9H-purin-9-yl)-1,3-dioxolan-2-yl)methoxy)(phenoxy)phosphoryl)amino)propanoate [Compound 10g]”, with “in the same range as DAPD prodrug 5”. Take “(2S)-ethyl 2-(((((2R,4R)-4-(2-amino-6-hydroxy-9H-purin-9-yl)-1,3-dioxolan-2-yl)methoxy)(phenoxy)phosphoryl)amino)propanoate [Compound 5]”: the “Factor of increase in potency against HBV compared with DAPD” value with HBV [1] (ratio of EC50 values, DAPD vs prodrug) came to 40. On to “(−)-β-D-(2R,4R)-1,3-dioxolane-2-amino-6-aminopropyl purine nucleoside phosphoramidate prodrug [Compound 4]”, for which, in the test with HIV, the “Activity against HIV” value is given as “submicromolar”. Also, in the test with HBV [2], the “Activity against HBV” value is listed as “submicromolar”.

These data come from article PMC4312240 (Bioorganic & medicinal chemistry, 2014).
